Measured values taken from ChEMBL document CHEMBL4028801, “A multifactorial approach to hepatobiliary transporter assessment enables improved therapeutic compound development” (Toxicol Sci, 2013).
Structures can show the parent of a compound that is named as a salt.

Assays:
[1] = AUC in human at 5 to 10 mg, po QD after 24 hrs; format: ADME, organism-based; conditions: in vivo
[2] = target: ATP-binding cassette sub-family C member 3 (Homo sapiens, UniProt O15438); test: Inhibition of human MRP3 overexpressed in Sf9 insect cell membrane vesicles assessed as uptake of [3H]-estradiol-17beta-D-glucuronide in presence of ATP and GSH measured after 10 mins by membrane vesicle transport assay; format: ADME, cell-based
Sequence of ATP-binding cassette sub-family C member 3 (O15438 whole entry): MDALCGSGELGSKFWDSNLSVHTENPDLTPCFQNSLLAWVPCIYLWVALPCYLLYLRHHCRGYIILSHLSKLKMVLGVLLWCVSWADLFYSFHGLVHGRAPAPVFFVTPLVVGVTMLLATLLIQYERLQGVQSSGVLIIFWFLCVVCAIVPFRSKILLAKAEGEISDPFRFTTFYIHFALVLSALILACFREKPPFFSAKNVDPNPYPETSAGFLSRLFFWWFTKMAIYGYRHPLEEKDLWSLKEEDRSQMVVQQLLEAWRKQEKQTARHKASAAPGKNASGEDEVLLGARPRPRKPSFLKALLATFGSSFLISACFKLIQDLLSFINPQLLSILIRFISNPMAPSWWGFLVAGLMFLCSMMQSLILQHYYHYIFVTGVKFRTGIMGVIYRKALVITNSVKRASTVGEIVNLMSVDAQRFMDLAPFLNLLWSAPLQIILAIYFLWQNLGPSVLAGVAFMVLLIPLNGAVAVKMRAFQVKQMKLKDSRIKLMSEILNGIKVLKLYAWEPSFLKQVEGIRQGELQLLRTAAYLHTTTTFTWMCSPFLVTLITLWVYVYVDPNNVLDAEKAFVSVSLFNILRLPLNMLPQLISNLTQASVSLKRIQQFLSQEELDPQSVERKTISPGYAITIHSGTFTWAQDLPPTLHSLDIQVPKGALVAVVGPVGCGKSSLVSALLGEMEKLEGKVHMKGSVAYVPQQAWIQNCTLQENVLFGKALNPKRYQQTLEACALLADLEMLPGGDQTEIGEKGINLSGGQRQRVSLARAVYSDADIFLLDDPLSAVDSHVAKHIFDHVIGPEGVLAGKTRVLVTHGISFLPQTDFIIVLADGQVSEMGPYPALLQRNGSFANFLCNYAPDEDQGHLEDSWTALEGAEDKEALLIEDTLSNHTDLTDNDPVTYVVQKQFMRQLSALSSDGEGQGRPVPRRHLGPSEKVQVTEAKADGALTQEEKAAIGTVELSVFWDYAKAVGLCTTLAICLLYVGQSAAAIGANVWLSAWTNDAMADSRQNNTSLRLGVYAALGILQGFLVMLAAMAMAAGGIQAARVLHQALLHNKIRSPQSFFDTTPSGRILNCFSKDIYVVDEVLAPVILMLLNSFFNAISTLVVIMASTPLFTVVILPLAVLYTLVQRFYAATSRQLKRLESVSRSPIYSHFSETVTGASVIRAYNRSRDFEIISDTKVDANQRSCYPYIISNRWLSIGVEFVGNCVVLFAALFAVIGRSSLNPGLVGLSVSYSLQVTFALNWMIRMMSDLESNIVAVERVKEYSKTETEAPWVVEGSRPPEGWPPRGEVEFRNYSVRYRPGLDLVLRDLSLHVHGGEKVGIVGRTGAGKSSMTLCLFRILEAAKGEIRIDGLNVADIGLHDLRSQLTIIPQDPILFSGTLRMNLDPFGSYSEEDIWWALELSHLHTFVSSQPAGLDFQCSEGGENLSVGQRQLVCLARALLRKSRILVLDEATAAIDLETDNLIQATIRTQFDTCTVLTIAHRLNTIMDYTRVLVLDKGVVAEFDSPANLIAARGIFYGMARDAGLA

[3] = target: ATP-binding cassette sub-family C member 2 (Homo sapiens, UniProt Q92887); test: Inhibition of human MRP2 overexpressed in Sf9 cell membrane vesicles assessed as uptake of [3H]-estradiol-17beta-D-glucuronide in presence of ATP and GSH measured after 20 mins by membrane vesicle transport assay
Sequence of ATP-binding cassette sub-family C member 2 (Q92887 whole entry): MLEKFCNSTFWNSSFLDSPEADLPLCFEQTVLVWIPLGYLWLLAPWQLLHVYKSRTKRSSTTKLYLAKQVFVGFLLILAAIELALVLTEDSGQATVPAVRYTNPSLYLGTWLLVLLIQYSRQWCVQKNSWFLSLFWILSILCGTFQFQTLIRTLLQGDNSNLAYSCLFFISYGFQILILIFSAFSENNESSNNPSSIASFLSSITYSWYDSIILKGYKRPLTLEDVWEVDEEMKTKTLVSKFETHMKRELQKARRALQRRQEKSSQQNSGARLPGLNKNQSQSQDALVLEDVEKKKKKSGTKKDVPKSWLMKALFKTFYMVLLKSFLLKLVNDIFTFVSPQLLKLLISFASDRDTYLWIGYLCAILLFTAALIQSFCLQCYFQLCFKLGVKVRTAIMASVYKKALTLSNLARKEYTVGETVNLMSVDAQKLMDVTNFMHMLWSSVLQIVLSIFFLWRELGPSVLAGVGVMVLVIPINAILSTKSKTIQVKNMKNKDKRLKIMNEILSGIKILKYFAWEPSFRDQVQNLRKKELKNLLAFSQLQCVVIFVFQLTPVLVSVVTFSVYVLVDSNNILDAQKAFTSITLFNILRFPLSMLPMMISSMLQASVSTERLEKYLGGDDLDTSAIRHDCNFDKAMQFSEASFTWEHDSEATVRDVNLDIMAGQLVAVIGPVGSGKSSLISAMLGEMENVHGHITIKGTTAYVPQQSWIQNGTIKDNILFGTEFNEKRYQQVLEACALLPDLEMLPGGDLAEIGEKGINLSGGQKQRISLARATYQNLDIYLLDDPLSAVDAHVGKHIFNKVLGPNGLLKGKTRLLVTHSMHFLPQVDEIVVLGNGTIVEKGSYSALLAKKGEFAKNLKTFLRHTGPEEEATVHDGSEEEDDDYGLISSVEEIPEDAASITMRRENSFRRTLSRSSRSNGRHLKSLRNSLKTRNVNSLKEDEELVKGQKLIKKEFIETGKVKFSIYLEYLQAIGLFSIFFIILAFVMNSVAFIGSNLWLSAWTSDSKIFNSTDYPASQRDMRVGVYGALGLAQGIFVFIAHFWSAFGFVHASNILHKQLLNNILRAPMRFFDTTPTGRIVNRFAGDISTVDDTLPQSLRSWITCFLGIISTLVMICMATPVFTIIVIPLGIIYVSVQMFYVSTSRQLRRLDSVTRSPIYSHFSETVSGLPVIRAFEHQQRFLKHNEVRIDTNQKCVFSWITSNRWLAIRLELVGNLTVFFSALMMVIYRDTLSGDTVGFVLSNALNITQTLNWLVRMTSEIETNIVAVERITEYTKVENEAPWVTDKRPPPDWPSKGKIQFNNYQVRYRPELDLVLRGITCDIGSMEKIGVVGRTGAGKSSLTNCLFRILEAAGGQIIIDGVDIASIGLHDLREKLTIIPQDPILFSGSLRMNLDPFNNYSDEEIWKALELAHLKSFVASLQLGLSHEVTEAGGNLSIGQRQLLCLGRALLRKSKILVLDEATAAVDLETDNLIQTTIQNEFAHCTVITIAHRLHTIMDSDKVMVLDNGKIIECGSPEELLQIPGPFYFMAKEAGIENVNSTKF

[4] = Drug concentration at steady state in human at 5 to 10 mg, po QD after 24 hrs; format: ADME, organism-based; conditions: in vivo, read-out: Css
[5] = target: T1, ATP-binding cassette sub-family C member 4 (Homo sapiens, UniProt O15439); test: Inhibition of human MRP4 overexpressed in Sf9 cell membrane vesicles assessed as uptake of [3H]-estradiol-17beta-D-glucuronide in presence of ATP and GSH measured after 20 mins by membrane vesicle transport assay; format: ADME, cell-based
T1 sequence (O15439 whole entry): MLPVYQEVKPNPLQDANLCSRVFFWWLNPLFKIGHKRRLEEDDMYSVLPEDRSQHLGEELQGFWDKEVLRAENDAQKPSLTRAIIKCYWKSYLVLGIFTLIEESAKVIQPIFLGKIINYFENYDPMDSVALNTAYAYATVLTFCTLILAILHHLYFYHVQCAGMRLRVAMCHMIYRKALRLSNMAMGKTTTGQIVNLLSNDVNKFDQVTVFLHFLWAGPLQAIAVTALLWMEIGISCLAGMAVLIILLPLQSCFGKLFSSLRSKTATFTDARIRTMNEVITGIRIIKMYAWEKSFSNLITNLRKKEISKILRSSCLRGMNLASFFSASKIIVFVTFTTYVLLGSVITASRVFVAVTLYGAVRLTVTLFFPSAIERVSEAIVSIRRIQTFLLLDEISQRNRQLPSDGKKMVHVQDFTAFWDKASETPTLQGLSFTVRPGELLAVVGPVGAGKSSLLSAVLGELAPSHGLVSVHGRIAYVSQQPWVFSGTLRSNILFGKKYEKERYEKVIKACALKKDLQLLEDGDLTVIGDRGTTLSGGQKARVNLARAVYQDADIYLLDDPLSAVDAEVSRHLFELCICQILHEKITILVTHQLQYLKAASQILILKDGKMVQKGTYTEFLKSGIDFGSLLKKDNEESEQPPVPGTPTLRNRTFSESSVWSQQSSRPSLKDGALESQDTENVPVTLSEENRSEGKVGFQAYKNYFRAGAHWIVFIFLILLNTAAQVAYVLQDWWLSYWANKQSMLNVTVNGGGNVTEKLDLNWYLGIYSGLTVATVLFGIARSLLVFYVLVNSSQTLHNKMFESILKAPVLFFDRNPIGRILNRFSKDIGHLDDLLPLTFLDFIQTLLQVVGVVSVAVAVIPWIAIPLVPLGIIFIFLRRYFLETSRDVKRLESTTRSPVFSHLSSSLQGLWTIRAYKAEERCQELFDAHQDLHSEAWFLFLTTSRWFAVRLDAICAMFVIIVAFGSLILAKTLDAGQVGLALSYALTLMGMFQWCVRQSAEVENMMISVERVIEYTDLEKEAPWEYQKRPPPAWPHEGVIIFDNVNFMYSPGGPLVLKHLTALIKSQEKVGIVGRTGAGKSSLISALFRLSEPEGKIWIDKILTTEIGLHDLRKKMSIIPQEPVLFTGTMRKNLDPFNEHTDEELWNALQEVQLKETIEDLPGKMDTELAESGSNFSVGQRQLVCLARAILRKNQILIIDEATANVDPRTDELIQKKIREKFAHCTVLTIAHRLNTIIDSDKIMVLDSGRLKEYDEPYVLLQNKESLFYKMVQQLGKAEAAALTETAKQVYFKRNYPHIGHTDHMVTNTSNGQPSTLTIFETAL

Bile salt export pump = Bile salt export pump (Homo sapiens, UniProt O95342); test: Inhibition of human BSEP overexpressed in Sf9 cell membrane vesicles assessed as uptake of [3H]-taurocholate in presence of ATP measured after 15 to 20 mins by membrane vesicle transport assay; format: ADME, cell-based
Sequence of Bile salt export pump (O95342 whole entry): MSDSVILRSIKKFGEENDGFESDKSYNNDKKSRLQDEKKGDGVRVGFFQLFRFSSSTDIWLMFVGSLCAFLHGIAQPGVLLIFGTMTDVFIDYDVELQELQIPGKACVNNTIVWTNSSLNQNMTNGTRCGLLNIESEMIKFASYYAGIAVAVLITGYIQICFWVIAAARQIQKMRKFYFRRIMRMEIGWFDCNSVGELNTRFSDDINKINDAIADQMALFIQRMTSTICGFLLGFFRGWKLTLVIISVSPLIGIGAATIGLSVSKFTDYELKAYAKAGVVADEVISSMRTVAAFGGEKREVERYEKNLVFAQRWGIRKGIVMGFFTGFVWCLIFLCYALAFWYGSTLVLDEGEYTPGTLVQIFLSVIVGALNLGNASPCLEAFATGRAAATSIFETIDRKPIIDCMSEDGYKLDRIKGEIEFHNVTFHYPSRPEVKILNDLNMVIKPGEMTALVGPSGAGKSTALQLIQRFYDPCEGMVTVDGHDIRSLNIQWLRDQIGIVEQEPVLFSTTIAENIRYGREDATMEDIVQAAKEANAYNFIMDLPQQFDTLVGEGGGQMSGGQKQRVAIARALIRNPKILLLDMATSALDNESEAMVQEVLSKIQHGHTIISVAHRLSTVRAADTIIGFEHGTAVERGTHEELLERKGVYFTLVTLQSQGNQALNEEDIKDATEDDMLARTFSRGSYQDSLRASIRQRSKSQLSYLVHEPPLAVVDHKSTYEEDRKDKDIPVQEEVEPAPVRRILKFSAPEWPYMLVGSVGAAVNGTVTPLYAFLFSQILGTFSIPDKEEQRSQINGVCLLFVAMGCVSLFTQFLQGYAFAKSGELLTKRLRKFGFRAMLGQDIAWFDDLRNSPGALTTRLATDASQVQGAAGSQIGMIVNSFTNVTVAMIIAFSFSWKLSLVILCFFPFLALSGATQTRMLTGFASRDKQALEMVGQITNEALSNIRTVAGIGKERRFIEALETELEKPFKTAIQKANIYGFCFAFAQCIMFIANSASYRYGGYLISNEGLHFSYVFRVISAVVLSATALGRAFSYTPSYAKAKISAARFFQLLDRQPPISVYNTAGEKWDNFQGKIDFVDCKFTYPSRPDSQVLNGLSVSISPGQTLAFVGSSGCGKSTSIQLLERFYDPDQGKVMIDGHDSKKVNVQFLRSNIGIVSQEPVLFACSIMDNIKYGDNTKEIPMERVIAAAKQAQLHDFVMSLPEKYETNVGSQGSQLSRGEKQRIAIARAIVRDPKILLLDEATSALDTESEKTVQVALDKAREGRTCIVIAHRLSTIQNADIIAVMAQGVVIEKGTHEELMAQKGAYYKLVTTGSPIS

[6] = Ratio of drug concentration at steady state in human at 5 to 10 mg, po QD after 24 hrs to IC50 for human BSEP overexpressed in Sf9 insect cells; format: ADME, organism-based; conditions: in vivo
[7] = Drug concentration at steady state in human at 15 to 60 mg, po QD after 24 hrs; format: ADME, organism-based; conditions: in vivo, read-out: Css
[8] = AUC in human at 15 to 60 mg, po QD after 24 hrs; format: ADME, organism-based; conditions: in vivo
[9] = Ratio of drug concentration at steady state in human at 15 to 60 mg, po QD after 24 hrs to IC50 for human BSEP overexpressed in Sf9 insect cells; format: ADME, organism-based; conditions: in vivo
Homo sapiens = test: Cardiotoxicity in human at 20 to 30 mg/day, po; format: toxicity
[10] = AUC in human at 10 mg, po after 24 hrs; format: ADME, organism-based; parameters: time < 24 hr, dose 10 mg, route oral; conditions: in vivo
[11] = Drug concentration at steady state in human at 20 to 80 mg, po QD after 24 hrs; format: ADME, organism-based; conditions: in vivo, read-out: Css
[12] = Ratio of drug concentration at steady state in human at 20 to 80 mg, po QD after 24 hrs to IC50 for human MRP3 overexpressed in Sf9 insect cells; format: ADME, organism-based; conditions: in vivo
[13] = Ratio of drug concentration at steady state in human at 20 to 80 mg, po QD after 24 hrs to IC50 for human BSEP overexpressed in Sf9 insect cells; format: ADME, organism-based; conditions: in vivo
[14] = AUC in human at 20 to 80 mg, po QD after 24 hrs; format: ADME, organism-based; conditions: in vivo
[15] = Ratio of drug concentration at steady state in human at 50 mg, po QD after 24 hrs to IC50 for human BSEP overexpressed in Sf9 insect cells; format: ADME, organism-based; conditions: in vivo
[16] = Drug concentration at steady state in human at 50 mg, po QD after 24 hrs; format: ADME, organism-based; conditions: in vivo, read-out: Css
[17] = AUC in human at 50 mg, po QD after 24 hrs; format: ADME, organism-based; parameters: dose 50 mg, time < 24 hr, route oral; conditions: in vivo

| Compound | IC50 [2] | IC50 [3] | IC50 [5] | IC50 (Bile salt export pump) | also measured |
| --- | --- | --- | --- | --- | --- |
| CC(C)(C)C(=O)OCOP(=O)(COCCn1cnc2c(N)ncnc21)OCOC(=O)C(C)(C)C [ADEFOVIR DIPIVOXIL] | > 133 µM | > 133 µM | > 133 µM | 46 µM | AUC at 24 h [1]: 0.765 µM·h; concentration at 24 h [4]: 32 nM; Ratio [6]: 0.00069 |
| Cc1ccccc1C(=O)Nc1ccc(C(=O)N2CCCC(O)c3cc(Cl)ccc32)c(C)c1 (stereo not given) [TOLVAPTAN] | > 133 µM | > 133 µM | > 133 µM | 9.99 µM | concentration at 24 h [7]: 396 nM; AUC at 24 h [8]: 9.49 µM·h; Ratio [9]: 0.04 |
| COc1ccc(CCN2CCC(Nc3nc4ccccc4n3Cc3ccc(F)cc3)CC2)cc1 [ASTEMIZOLE] | > 133 µM | > 133 µM | > 133 µM |  | Activity (Homo sapiens): Toxic; AUC at 24 h [10]: 0.024 µM·h |
| CC(C)n1c(/C=C/C(O)CC(O)CC(=O)O)c(-c2ccc(F)cc2)c2ccccc21 (stereo not given) [FLUVASTATIN] | 57 µM |  | > 133 µM |  | concentration at 24 h [11]: 62 nM; Ratio [12]: 0.001; Ratio [13]: 0.002; AUC at 24 h [14]: 1.49 µM·h |
| CC(O)(CS(=O)(=O)c1ccc(F)cc1)C(=O)Nc1ccc(C#N)c(C(F)(F)F)c1 (stereo not given) [BICALUTAMIDE] | > 133 µM | > 133 µM | > 133 µM | 79.6 µM | Ratio [15]: 0.263; concentration at 24 h [16]: 20900 nM; AUC at 24 h [17]: 502 µM·h |
| NC(=O)CC[C@@H]1NC(=O)[C@H](Cc2ccccc2)NC(=O)[C@H](Cc2ccc(O)cc2)NC(=O)[C@@H](N)CSSC[C@@H](C(=O)N2CCC[C@H]2C(=O)N[C@@H](CCCN=C(N)N)C(=O)NCC(N)=O)NC(=O)[C@H](CC(N)=O)NC1=O [VASOPRESSIN] | > 133 µM | > 133 µM | > 133 µM | > 133 µM |  |
| Cc1ccc(-c2ncc(Cl)cc2-c2ccc(S(C)(=O)=O)cc2)cn1 [ETORICOXIB] | > 133 µM | > 133 µM | 53 µM | 53.2 µM |  |
| CN1C(C(=O)Nc2ccccn2)=C(O)c2ccccc2S1(=O)=O [PIROXICAM] | > 133 µM | > 133 µM | > 133 µM | > 133 µM |  |
| O=C(CCCCCCC(=O)Nc1ccccc1)NO [VORINOSTAT] | > 133 µM | > 133 µM | > 133 µM | > 133 µM |  |
| CCCCCCCCCCC[C@@H](C[C@@H]1OC(=O)[C@H]1CCCCCC)OC(=O)[C@H](CC(C)C)NC=O [ORLISTAT] | > 133 µM | > 133 µM | > 133 µM | > 133 µM |  |
| CC(C)OC(=O)OCOP(=O)(CO[C@H](C)Cn1cnc2c(N)ncnc21)OCOC(=O)OC(C)C [TENOFOVIR DISOPROXIL FUMARATE] | > 133 µM | > 133 µM | > 133 µM | > 133 µM |  |
| CC[C@@]1(O)C(=O)OCc2c1cc1n(c2=O)Cc2cc3ccccc3nc2-1 [CAMPTOTHECIN] | > 133 µM | > 133 µM | 7.4 µM | > 133 µM |  |
| CC(=O)Oc1ccccc1C(=O)O [ASPIRIN] | > 133 µM | > 133 µM | > 133 µM | > 133 µM |  |
| CCOC(=O)/C=C(C)/C=C/C=C(C)/C=C/c1c(C)cc(OC)c(C)c1C [ETRETINATE] | > 133 µM | > 133 µM | > 133 µM | > 133 µM |  |
| CC(=O)Nc1ccc(O)cc1 [ACETAMINOPHEN] | > 133 µM | > 133 µM | > 133 µM | > 133 µM |  |
| O=C(NCCN1CCOCC1)c1ccc(Cl)cc1 [MOCLOBEMIDE] | > 133 µM | > 133 µM | > 133 µM | > 133 µM |  |
| NS(=O)(=O)c1cc2c(cc1C(F)(F)F)NCNS2(=O)=O [HYDROFLUMETHIAZIDE] | > 133 µM | > 133 µM | > 133 µM | > 133 µM |  |
| C/C(=C\C(=O)OCCCCCCCCC(=O)O)C[C@@H]1OC[C@H](C[C@@H]2O[C@H]2[C@@H](C)[C@H](C)O)[C@@H](O)[C@H]1O [MUPIROCIN] | > 133 µM | > 133 µM | > 133 µM | > 133 µM |  |
| CCC[C@H](N[C@@H](C)C(=O)N1[C@H](C(=O)O)C[C@@H]2CCCC[C@@H]21)C(=O)OCC [PERINDOPRIL ERBUMINE] | > 133 µM | > 133 µM | > 133 µM | > 133 µM |  |
| C[C@H]1CN(C[C@H](Cc2ccccc2)C(=O)NCC(=O)O)CC[C@@]1(C)c1cccc(O)c1 [ALVIMOPAN] | > 133 µM | > 133 µM | > 133 µM | > 133 µM |  |
| O=c1c(O)c(-c2ccc(O)c(O)c2)oc2cc(O)cc(O)c12 [QUERCETIN] | > 133 µM | > 133 µM | 20.8 µM | > 133 µM |  |
| CCOc1cc2ncc(C#N)c(Nc3ccc(OCc4ccccn4)c(Cl)c3)c2cc1NC(=O)/C=C/CN(C)C [NERATINIB] | > 133 µM | > 133 µM | 23 µM | 25 µM |  |
